Experimental findings from US11053239B2, “Compounds as BLC-2-selective apoptosis-inducing agents” (Fochon Pharmaceuticals, Ltd., priority 2017, dated 2021) are described below.

In one assay the test system is RS4; 11 cells. Description: Cell proliferation assay (MTS), RS4; 11 cells. It counts as cell-based. Particulars: Homo sapiens, RS4-11, 72 h, read-out: RS4. The method in brief: (§1)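 RS4;11 (30000 cells/well, 72 h) and DOHH2 (5000 cells/well, 120 h) cells in RPMI-1640/10% FBS, treated at 37 °C with compound at 1.5–10000 nM final. Viability by MTS (2 h, SDS stop), absorbance 490 nm minus 650 nm reference; IC50 fitted.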

The test system of another assay is DOHH2 cells. Put plainly: Cell proliferation assay (MTS), DOHH2 cells. It counts as cell-based. Particulars: Homo sapiens, DOHH-2, 120 h. The method in brief:
as §1

Where [1] appears, read: RS4, 11 (ATCC CRL-1873) cell proliferation, 30000 cells/well, 72 h, MTS, mechanism-based readout of Bcl-2 inhibition, 11 IC50.
Setting [2] is: DOHH2 (DSMZ ACC 47) cell proliferation, 5000 cells/well, 120 h, MTS, mechanism-based readout of Bcl-2 inhibition, read-out: DOHH2 IC50.

Read-outs that look alike come from different tables or passages of the source.

Consider `C[C@@H](CN1CCS(=O)(=NC#N)CC1)Nc1ccc(S(=O)(=O)NC(=O)c2ccc(N3CCN(CC4=C(c5ccc(Cl)cc5)CC(C)(C)CC4)CC3)cc2Oc2cnc3[nH]ccc3c2)cc1[N+](=O)[O-]` [Example 6, (S)-2-((1H-pyrrolo[2,3-b]pyridin-5-yl)oxy)-4-(4-((4′-chloro-5,5-dimethyl-3,4,5,6-tetrahydro-[1,1′-biphenyl]-2-yl)methyl)piperazin-1-yl)-N-((4-((1-(1-(cyanoimino)-1-oxido-1λ^6-thiomorpholino)propan-2-yl)amino)-3-nitrophenyl)sulfonyl)benzamide], for which the figures for the IC50 with RS4; 11 cells (setting [1]) and with DOHH2 cells (setting [2]) were 36 nM and 150 nM, respectively.

On to `COC(=O)N=S1(=O)CCC(CNc2ccc(S(=O)(=O)NC(=O)c3ccc(N4CCN(CC5=C(c6ccc(Cl)cc6)CC(C)(C)CC5)CC4)cc3Oc3cnc4[nH]ccc4c3)cc2[N+](=O)[O-])CC1` (stereo not shown) [Example 61, methyl(4-(((4-(N-(2-((1H-pyrrolo[2,3-b]pyridin-5-yl)oxy)-4-(4-((4′-chloro-5,5-dimethyl-3,4,5,6-tetrahydro-[1,1′-biphenyl]-2-yl)methyl)piperazin-1-yl)benzoyl)sulfamoyl)-2-nitrophenyl)amino)methyl)-1-oxidotetrahydro-2H-1λ^6-thiopyran-1-ylidene) carbamate], for which the IC50 with RS4; 11 cells (setting [1]) came out at 56 nM; in the assay with DOHH2 cells (setting [2]), 161 nM.

For the compound `CCS(=O)(CC)=NC1CCC(CNc2ccc(S(=O)(=O)NC(=O)c3ccc(N4CCN(CC5=C(c6ccc(Cl)cc6)CC(C)(C)CC5)CC4)cc3Oc3cnc4[nH]ccc4c3)cc2[N+](=O)[O-])CC1` (stereo not shown) [Example 9B, 2-((1H-pyrrolo[2,3-b]pyridin-5-yl)oxy)-4-(4-((4′-chloro-5,5-dimethyl-3,4,5,6-tetrahydro-[1,1′-biphenyl]-2-yl)methyl)piperazin-1-yl)-N-((4-((((1r,4r)-4-((diethyl(oxo)-λ^6-sulfanylidene)amino)cyclohexyl)methyl)amino)-3-nitrophenyl)sulfonyl)benzamide], the IC50 in the assay with RS4; 11 cells (11 IC50 (nM)) came to 5 nM; in the assay on DOHH2 cells (read-out: DOHH2 IC50 (nM)), 11 nM.

Consider `COC(=O)N=S1(=O)CCN(CC[C@H](C)Nc2ccc(S(=O)(=O)NC(=O)c3ccc(N4CCN(CC5=C(c6ccc(Cl)cc6)CC(C)(C)CC5)CC4)cc3Oc3cnc4[nH]ccc4c3)cc2[N+](=O)[O-])CC1` [Example 84, methyl (S)-(4-(3-((4-(N-(2-((1H-pyrrolo[2,3-b]pyridin-5-yl)oxy)-4-(4-((4′-chloro-5,5-dimethyl-3,4,5,6-tetrahydro-[1,1′-biphenyl]-2-yl)methyl)piperazin-1-yl)benzoyl)sulfamoyl)-2-nitrophenyl)amino)butyl)-1-oxido-1λ^6-thiomorpholin-1-ylidene)carbamate], for which the IC50 worked out at 11 nM in the assay with RS4; 11 cells (setting [1]) and 15 nM with DOHH2 cells (setting [2]).

For the compound `CC1(C)CCC(CN2CCN(c3ccc(C(=O)NS(=O)(=O)c4ccc(NCC5CCS(=O)(=NC6CC6)CC5)c(S(=O)(=O)C(F)(F)F)c4)c(Oc4cnc5[nH]ccc5c4)c3)CC2)=C(c2ccc(Cl)cc2)C1` (stereo not shown) [Example 8, 2-((1H-pyrrolo[2,3-b]pyridin-5-yl)oxy)-4-(4-((4′-chloro-5,5-dimethyl-3,4,5,6-tetrahydro-[1,1′-biphenyl]-2-yl)methyl)piperazin-1-yl)-N-((4-(((1-(cyclopropylimino)-1-oxidohexahydro-1λ^6-thiopyran-4-yl)methyl)amino)-3-((trifluoromethyl)sulfonyl)phenyl)sulfonyl)benzamide], the figures for the IC50 with RS4; 11 cells (setting [1]) and with DOHH2 cells (setting [2]) were 33 nM and 99 nM, respectively.

Turning to `C[C@@H](CN1CCS(=O)(=NC2CC2)CC1)Nc1ccc(S(=O)(=O)NC(=O)c2ccc(N3CCN(CC4=C(c5ccc(Cl)cc5)CC(C)(C)CC4)CC3)cc2Oc2cnc3[nH]ccc3c2)cc1[N+](=O)[O-]` [Example 39, (S)-2-((1H-pyrrolo[2,3-b]pyridin-5-yl)oxy)-4-(4-((4′-chloro-5,5-dimethyl-3,4,5,6-tetrahydro-[1,1′-biphenyl]-2-yl)methyl)piperazin-1-yl)-N-((4-((1-(1-(cyclopropylimino)-1-oxido-1λ^6-thiomorpholino)propan-2-yl)amino)-3-nitrophenyl)sulfonyl)benzamide], the values for the IC50 in the assay with RS4; 11 cells (setting [1]) and with DOHH2 cells (setting [2]) were 40 nM and 163 nM, respectively.

In the case of `CC(C)C(=O)N=S1(=O)CCN(CC[C@H](C)Nc2ccc(S(=O)(=O)NC(=O)c3ccc(N4CCN(CC5=C(c6ccc(Cl)cc6)CC(C)(C)CC5)CC4)cc3Oc3cnc4[nH]ccc4c3)cc2S(=O)(=O)C(F)(F)F)CC1` [Example 90, (S)-2-((1H-pyrrolo[2,3-b]pyridin-5-yl)oxy)-4-(4-((4′-chloro-5,5-dimethyl-3,4,5,6-tetrahydro-[1,1′-biphenyl]-2-yl)methyl)piperazin-1-yl)-N-((4-((4-(1-(isobutyrylimino)-1-oxido-1λ^6-thiomorpholino)butan-2-yl)amino)-3-((trifluoromethyl)sulfonyl)phenyl)sulfonyl) benzamide], the results for the IC50 with RS4; 11 cells (setting [1]) and in the assay with DOHH2 cells (setting [2]) were 116 nM and 225 nM, respectively.

As to `CC1(C)CCC(CN2CCN(c3ccc(C(=O)NS(=O)(=O)c4ccc(NCC5CCS(=O)(=NC6CC6)CC5)c([N+](=O)[O-])c4)c(Oc4cnc5[nH]ccc5c4)c3)CC2)=C(c2ccc(Cl)cc2)C1` (stereo not shown) [Example 5, 2-((1H-pyrrolo[2,3-b]pyridin-5-yl)oxy)-4-(4-((4′-chloro-5,5-dimethyl-3,4,5,6-tetrahydro-[1,1′-biphenyl]-2-yl)methyl)piperazin-1-yl)-N-((4-(((1-(cyclopropylimino)-1-oxidohexahydro-1λ^6-thiopyran-4-yl)methyl)amino)-3-nitrophenyl)sulfonyl)benzamide], the IC50 came out at 43 nM with RS4; 11 cells (setting [1]) and 92 nM with DOHH2 cells (setting [2]).

Take `CC(=O)N=S1(=O)CCN(CCNc2ccc(S(=O)(=O)NC(=O)c3ccc(N4CCN(CC5=C(c6ccc(Cl)cc6)CC(C)(C)CC5)CC4)cc3Oc3cnc4[nH]ccc4c3)cc2[N+](=O)[O-])CC1` [Example 37, 2-((1H-pyrrolo[2,3-b]pyridin-5-yl)oxy)-N-((4-((2-(1-(acetylimino)-1-oxido-1λ^6-thiomorpholino)ethyl)amino)-3-nitrophenyl)sulfonyl)-4-(4-((4′-chloro-5,5-dimethyl-3,4,5,6-tetrahydro-[1,1′-biphenyl]-2-yl)methyl)piperazin-1-yl) benzamide]: the IC50 with RS4; 11 cells (setting [1]) amounted to 12 nM; in the assay with DOHH2 cells (setting [2]), 228 nM.

On to `COC(=O)N=S1(=O)CCN(CCNc2ccc(S(=O)(=O)NC(=O)c3ccc(N4CCN(CC5=C(c6ccc(Cl)cc6)CC(C)(C)CC5)CC4)cc3Oc3cnc4[nH]ccc4c3)cc2[N+](=O)[O-])CC1` [Example 43, methyl (4-(2-((4-(N-(2-((1H-pyrrolo[2,3-b]pyridin-5-yl)oxy)-4-(4-((4′-chloro-5,5-dimethyl-3,4,5,6-tetrahydro-[1,1′-biphenyl]-2-yl)methyl)piperazin-1-yl)benzoyl)sulfamoyl)-2-nitrophenyl)amino)ethyl)-1-oxido-1λ^6-thiomorpholin-1-ylidene) carbamate], for which the IC50 with RS4; 11 cells (setting [1]) came to 102 nM; in the assay on DOHH2 cells (setting [2]) it was 271 nM.

`CC1(C)CCC(CN2CCN(c3ccc(C(=O)NS(=O)(=O)c4ccc(NCC5CCOCC5)c([N+](=O)[O-])c4)c(Oc4cnc5[nH]ccc5c4)c3)CC2)=C(c2ccc(Cl)cc2)C1` [Reference compound 1, 2-((1H-pyrrolo[2,3-b]pyridin-5-yl)oxy)-4-(4-((4′-chloro-5,5-dimethyl-3,4,5,6-tetrahydro-[1,1′-biphenyl]-2-yl)methyl)piperazin-1-yl)-N-((3-nitro-4-(((tetrahydro-2H-pyran-4-yl)methyl)amino)phenyl)sulfonyl)benzamide, reference compound]: the figures for the IC50 with RS4; 11 cells (setting [1]) and in the assay on DOHH2 cells (setting [2]) were 18 nM and 57 nM, respectively.

For the compound `CN=S1(=O)CCN(CC[C@H](C)Nc2ccc(S(=O)(=O)NC(=O)c3ccc(N4CCN(CC5=C(c6ccc(Cl)cc6)CC(C)(C)CC5)CC4)cc3Oc3cnc4[nH]ccc4c3)cc2[N+](=O)[O-])CC1` [Example 94, (S)-2-((1H-pyrrolo[2,3-b]pyridin-5-yl)oxy)-4-(4-((4′-chloro-5,5-dimethyl-3,4,5,6-tetrahydro-[1,1′-biphenyl]-2-yl)methyl)piperazin-1-yl)-N-((4-((4-(1-(methylimino)-1-oxido-1λ^6-thiomorpholino)butan-2-yl)amino)-3-nitrophenyl)sulfonyl) benzamide], the IC50 in the assay on RS4; 11 cells (setting [1]) stood at 27 nM; with DOHH2 cells (setting [2]), 15 nM.

As to `CC1(C)CCC(CN2CCN(c3ccc(C(=O)NS(=O)(=O)c4cnc(NCC5CCC(N=S(C)(C)=O)CC5)c([N+](=O)[O-])c4)c(Oc4cnc5[nH]ccc5c4)c3)CC2)=C(c2ccc(Cl)cc2)C1` (stereo not shown) [Example 52, 2-((1H-pyrrolo[2,3-b]pyridin-5-yl)oxy)-4-(4-((4′-chloro-5,5-dimethyl-3,4,5,6-tetrahydro-[1,1′-biphenyl]-2-yl)methyl)piperazin-1-yl)-N-((6-(((4-((dimethyl(oxo)-λ^6-sulfanylidene)amino)cyclohexyl)methyl)amino)-5-nitropyridin-3-yl)sulfonyl) benzamide], the figures for the IC50 with RS4; 11 cells (setting [1]) and in the assay on DOHH2 cells (setting [2]) were 2 nM and 29 nM, respectively.

In the case of `CCC(=O)N=S1(=O)CCN(CC[C@H](C)Nc2ccc(S(=O)(=O)NC(=O)c3ccc(N4CCN(CC5=C(c6ccc(Cl)cc6)CC(C)(C)CC5)CC4)cc3Oc3cnc4[nH]ccc4c3)cc2[N+](=O)[O-])CC1` [Example 81, (S)-2-((1H-pyrrolo[2,3-b]pyridin-5-yl)oxy)-4-(4-((4′-chloro-5,5-dimethyl-3,4,5,6-tetrahydro-[1,1′-biphenyl]-2-yl)methyl)piperazin-1-yl)-N-((3-nitro-4-((4-(1-oxido-1-(propionylimino)-1λ^6-thiomorpholino)butan-2-yl)amino)phenyl)sulfonyl) benzamide], the IC50 in the assay with RS4; 11 cells (setting [1]) is 7 nM; in the assay with DOHH2 cells (setting [2]), 30 nM.
